{"source": "patent US12352767B2", "about": "“Method of treating cognitive decline associated with neurological diseases based on a decrease in FLT4 expression or activity” (University of Virginia Patent Foundation, priority 2018, dated 2025)", "key": {"[1]": {"tested_on": "meningeal lymphatic drainage", "assay": "Drainage of CSF tracer (OVA-A647) into deep cervical lymph nodes", "assay_type": "in vivo, mice", "conditions": "7 days after Visudyne/photoconversion, 2 h after i.c.m. tracer, vs control groups", "experimental": "(§1) Mice were anaesthetized by intraperitoneal (i.p.) injection of a mixed solution of ketamine (100 mg/Kg) and xylazine (10 mg/Kg) in saline. The skin of the neck was shaved and cleaned with iodine and 70% ethanol, ophthalmic solution placed on the eyes to prevent drying and the mouse's head was secured in a stereotaxic frame. After making a skin incision, the muscle layers were retracted and the cisterna magna exposed. Using a Hamilton syringe (coupled to a 33-gauge needle), the volume of the desired tracer solution was injected into the CSF-filled cisterna magna compartment. For brain CSF influx and lymphatic drainage experiments, 2 or 5 μL of Alexa Fluor® 594 or 647 conjugated OVA (Thermo Fisher Scientific), at 0.5 mg/mL in artificial CSF (#597316, Harvard Apparatus U.K.), were injected at a rate of 2.5 μL/min. After injecting, the syringe was left in place for additional 2 min to prevent back-flow of CSF."}, "brain parenchyma [2]": {"tested_on": "brain parenchyma", "assay": "Brain perfusion/influx by CSF tracer OVA-A647 (brain sections)", "assay_type": "in vivo, mice", "conditions": "7 days after Visudyne/photoconversion, vs control groups", "experimental": "as §1"}, "brain parenchyma [3]": {"tested_on": "brain parenchyma", "assay": "Efflux of fluorescent tracers injected into the brain parenchyma", "assay_type": "in vivo, mice", "conditions": "7 days after Visudyne/photoconversion, vs both control groups", "experimental": "An incision was made in the skin to expose the skull and a hole was drilled at +1.5 mm in the anterior-posterior axis and −1.5 mm in the medial-lateral axis relative to bregma. Then, using a Hamilton syringe (coupled to a 33-gauge needle) placed at +2.5 mm in the dorsal-ventral axis (relative to bregma), 1 μL of either Alexa Fluor® 647 conjugated OVA (at 0.5 mg/mL), HiLyte™ Fluor 647 conjugated Aβ42 (at 0.05 μg/mL, AnaSpec, Inc.) or BODIPY™ FL conjugated low density lipoprotein (LDL) from human plasma (at 0.1 mg/mL, Thermo Fisher Scientific) in artificial CSF were injected at a rate of 0.2 μL/min into the brain parenchyma. […] After injecting, the syringe was left in place for additional 5 min to prevent back-flow."}, "meningeal immune cells": {"tested_on": "meningeal immune cells", "assay": "Flow cytometry of meningeal immune cell populations", "assay_type": "in vivo", "conditions": "5xFAD mice", "experimental": "Individual meninges were immediately dissected from the mouse's skull cap and digested 15 min at 37° C. with 1.4 U/ml of Collagenase VIII (Sigma Aldrich) and 35 U/ml of DNAse I (Sigma Aldrich) in complete media consisting of DMEM (Gibco) with 2% FBS (Atlas Biologicals), 1% L-Glutamine (Gibco), 1% penicillin/streptomycin (Gibco), 1% Sodium pyruvate (Gibco), 1% non-essential amino-acid (Gibco) and 1.5% Hepes (Gibco). […] Cell viability was determined by using the Zombie Aqua™ Fixable Viability Kit following the manufacturer's instructions (BioLegend). […] Fluorescence data was collected with a Gallios™ Flow Cytometer (Beckman Coulter, Inc.) then analyzed using FlowJo software (Tree Star, Inc.). […] An aliquot of unstained cells of each sample was counted using Cellometer Auto2000 (Nexcelor) to provide accurate counts for each population. […]"}, "[4]": {"tested_on": "intracranial vasculature, blood-brain barrier, brain ventricles", "conditions": "mouse, in vivo", "protocol": "All MRI acquisitions were performed at the University of Virginia Molecular Imaging Core facilities in a 7T Clinscan system (Bruker, Ettlingen, Germany) equipped with a 30 mm diameter cylindrical RF Coil. For analysis of mouse intracranial vascular structure, mice were placed in the 7T Clinscan system under light anaesthesia with isoflurane (1-1.25% in oxygen). Structural imaging data of intracranial arteries (magnetic resonance angiography or MRA) was acquired with a high-resolution 3D isotropic Spiral Cine Phase Contrast (SCPC) technique: repetition time (TR)=15 ms, echo time (TE)=0.63 ms, field of view (FOV)=25×25 mm, slice thickness=0.01 mm, number of sagittal slices=160, number of averages per phase-encode step (NEX)=1 and flip angle (FA)=20°. Total imaging time was of about 15 min per mouse. Structural imaging data of intracranial veins (magnetic resonance venography or MRV) was acquired with a high-resolution 3D isotropic SCPC technique with a saturation band positioned caudal to the slices, in order to saturate the arterial signal: TR=17 ms, TE=4.54 ms, FOV=17×26 mm, slice thickness=0.3 mm, number of sagittal slices=160, NEX=2 and FA=90°. Total imaging time was of about 13 min per mouse. Vascular volume and diameters were quantified using semi-automatic segmentation tools provided in the OsiriX software. For analysis of mouse brain ventricular volume, mice were placed in the 7T Clinscan system under light anaesthesia with isoflurane and structural imaging data were acquired with a high-resolution 3D isotropic T2-weighted SPACE technique with the following parameters: TR=3000 ms, TE=139 ms, FOV=26×20.5 mm, slice thickness=0.13 mm, number of slices=160 and NEX=3, requiring a total acquisition time of about 16 min per mouse. Ventricular volumes were quantified using semi-automatic segmentation tools provided in the OsiriX software.\nInitially, a pre-contrast image was acquired after placing the mice in the 7T Clinscan system under light anaesthesia with isoflurane. Gadobenate dimeglumine (gadolinium or Gd, MultiHance, Bracco Diagnostics, Princeton, New Jersey) at 0.3 mmol/kg was then injected intravenously (i.v.), through a catheter inserted in the tail vein. To assess the rate of influx of a CSF tracer into the brain, mice were anaesthetized by i.p. injection of ketamine and xylazine in saline and an i.c.m. injection of 5 μL of Gd at a concentration of 25 mM in saline was performed. […] The mice were placed in the MRI apparatus and maintained under light anaesthesia with isoflurane. For MRI acquisition, maximum gradient strength of the system was 500 mT/m and the peak slew rate achievable was 6667 mT/m/ms. After i.v. injection of Gd or 10 min after injecting gadolinium into the CSF, a series of post-contrast T1-weighted images were taken through the head with the following parameters: TR=500 ms, TE=11 ms, FOV=20×20 mm with a 192×192 matrix (104 μm×104 μm resolution), slice thickness=0.7 mm, number of slices=22 and NEX=2. For i.v. Gd injection 5 post-contrast images were acquired requiring about 16 min per mouse (each sequence taken every 194 s). For brain influx of Gd injected into the CSF, the total acquisition time was of about 52 min per mouse (194 s×16 sequences per mouse), meaning that T1 images were acquired for approximately 1 hour post-injection."}}, "note": "Entries after “also recorded” stand apart in the source; their conditions may differ."}
{"substance": "verteporfin [Visudyne]", "values": [{"measurement": "OVA-A647 drainage from CSF into dCLNs (area fraction)", "setting": "[1]", "result": "significant reduction; also recorded: significantly less amount of tracer"}, {"measurement": "brain perfusion by CSF tracer (OVA-A647 area fraction in brain sections)", "setting": "brain parenchyma [2]", "result": "significantly lower; also recorded: significant decrease"}, {"measurement": "levels of remaining tracers in brain parenchyma (Aβ42-HiLyte647, OVA-A647, LDL-BODIPY FL)", "setting": "brain parenchyma [3]; one hour after stereotaxic injection", "result": "higher levels of remnants"}, {"measurement": "Aβ42-HiLyte647 area fraction in the injected brain hemisphere", "setting": "brain parenchyma [3]", "result": "significantly higher level"}, {"measurement": "LDL-BODIPY FL area fraction in the injected brain hemisphere", "setting": "brain parenchyma [3]", "result": "significantly higher level"}, {"measurement": "OVA-A647 area fraction in the injected brain hemisphere", "setting": "brain parenchyma [3]", "result": "significantly higher level"}, {"measurement": "number of macrophages in the meninges", "setting": "meningeal immune cells; 1.5 months Visudyne/photoconversion vs both control groups", "result": "significant increase"}, {"measurement": "neutrophils in the meninges", "setting": "meningeal immune cells; Visudyne group (no photoconversion) compared to Visudyne/photoconversion group", "result": "significant increase"}, {"measurement": "arterial vessel volume", "setting": "[4]", "result": "no significant changes between groups"}, {"measurement": "basilar artery diameter", "setting": "[4]", "result": "no significant changes between groups"}, {"measurement": "structure of major intracranial veins and arteries", "setting": "[4]", "result": "not altered"}, {"measurement": "superior sagittal sinus (SSS) diameter", "setting": "[4]", "result": "no significant changes between groups"}, {"measurement": "venous vessel volume", "setting": "[4]", "result": "no significant changes between groups"}]}
